Assay results reported in ChEMBL document CHEMBL1155569, “Synthesis and structures of regioisomeric hydnocarpin-type flavonolignans” (J Nat Prod, 2000).
Calls of active or inactive are those of the source. The calls are words filed in the database; no cut-off is given here.

Target: T1, Quinolone resistance protein NorA (Staphylococcus aureus) (UniProt P0A0J7)
T1 sequence (whole entry): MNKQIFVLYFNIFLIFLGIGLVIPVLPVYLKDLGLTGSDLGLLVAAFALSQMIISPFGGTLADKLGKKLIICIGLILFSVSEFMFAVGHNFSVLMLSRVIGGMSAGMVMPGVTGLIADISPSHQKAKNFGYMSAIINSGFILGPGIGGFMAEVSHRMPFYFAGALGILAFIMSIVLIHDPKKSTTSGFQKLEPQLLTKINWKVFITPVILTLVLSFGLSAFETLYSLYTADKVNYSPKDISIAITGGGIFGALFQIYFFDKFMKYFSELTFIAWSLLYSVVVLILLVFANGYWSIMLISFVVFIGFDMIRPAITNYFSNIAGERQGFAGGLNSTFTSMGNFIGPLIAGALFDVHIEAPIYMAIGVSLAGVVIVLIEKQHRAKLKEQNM
Experiment: Inhibition of Staphylococcus aureus NorA MDR efflux pump

Activity, active:
COc1cc([C@H]2Oc3cc(-c4cc(=O)c5c(O)cc(O)cc5o4)cc(OC)c3O[C@@H]2CO)ccc1O (racemic)
COc1cc([C@H]2Oc3cc(-c4cc(=O)c5c(O)cc(O)cc5o4)ccc3O[C@@H]2CO)ccc1O (racemic)
COc1cc([C@H]2Oc3ccc(-c4cc(=O)c5c(O)cc(O)cc5o4)cc3O[C@@H]2CO)ccc1O (racemic)
COc1cc([C@H]2Oc3c(OC)cc(-c4cc(=O)c5c(O)cc(O)cc5o4)cc3O[C@@H]2CO)ccc1O (racemic)
